The record followed here is patent US8791163B2 (McGill University, priority 2006, dated 2014).

Each structure is given as a SMILES string. Several values for one entry are separate records, joined by “and”; a condition that tells them apart may be missing. Identical values can stand only once.

Assay [1] concerns dorsal raphe 5-HT neurons. Put plainly: In vivo electrophysiological recording of 5-HT firing activity. Also noted: species or system rat. The text has this:
Serotonin (5-HT) neurons are implicated in the regulation of mood (for a review see Gobbi G, (2005) Inter. Rev. Neurobiology 65: 249-271). The increase in serotonergic neurotransmission is linked to the action of antidepressant drugs. For example fluoxetine (Prozac) increases the 5-HT availability by blocking its […]; mirtazapine (Remeron) increases 5-HT firing activity via an indirect alpha-2 receptor blockade. Consequently, in order to test if compound 5b increases the 5-HT firing activity, in vivo 5-HT neuron activity was recorded after single (40 or 80 mg/kg, subcutaneous) and repeated injections with compound 5b (40 mg/kg, i.p. once a day, for 4 days). For animals treated with a single injection (acute) the recording was done immediately following the injection. For animals treated with repeated injection (sub-chronic) the recording was done 24 hours after the last injection (FIG. 6).
Rats (Sprague-Dawley) were anesthetized with chloral hydrate (400 mg/kg i.p.) and placed in a stereotaxic frame (David Kopf Instruments) with the skull positioned horizontally. To maintain a full anesthetic state in which there is no reaction to a tail or paw pinch, chloral hydrate supplements of 100 mg/kg were given as needed. A burr hole was drilled in the midline, 0.9 to 1.2 mm anterior to interaural zero (Paxinos, G. and Watson, C. (1982); The rat brain in Stereotaxic Coordinates; Academy, Sydney). Dorsal raphe was encountered just below the Sylvius aqueduct, 5.0 to 6.5 mm ventral to dura mater. The dorsal raphe 5-HT neurons, in physiological conditions, were identified according to the following criteria: a slow (0.5-2.5 Hz) and regular firing rate; and a long-duration (0.8-1.2 ms) positive action potential (Baraban and Aghajanian (1980) Neuropharmacology 19, 355-363). Neuronal activity was recorded and processed by a computer connected to CED1401 interface-Spike 2 software (Cambridge Electronic Design, Cambridge, UK).

Assay [2] has as its system Male rats (Sprague-Dawley). Put plainly: EEG and EMG sleep recordings (slow wave sleep, REM sleep, wakefulness). The settings on record: 5b 40 mg/kg s.c.; individual rats 1-11. The format is in vivo, rat. The method, then: Male rats (Sprague-Dawley) weighing approximately 300-340 g were used for surgical implantation of electroencephalogram (EEG) and electromyogram (EMG) electrodes. Following the recovery from surgery, the animals were housed separately in cages and kept on a 12-hour light/dark cycle (12 h light-12 h dark, 7:30 AM lights on) at a controlled temperature (21° C.). The rats had free access to food and water ad libitum.
Rats were anaesthetized using equithesin (425 mg chloral hydrate, 1 ml 100% ethanol, 98 mg pentobarbitone, 213 mg magnesium sulphate and 3 ml propylene glycol, sterile water per 10 ml of solution; 1 ml per 300 g body weight i.p.) and placed in a stereotactic frame. The skull was exposed and carefully cleaned. Two stainless-steel epidural electrodes were implanted for the registration of the EEG under stereotactic control, through 1.5 mm burr holes at the coordinates corresponding to the right parietal-occipital cortex (AP=−2 mm L=3 mm; AP=−7 mm L=3 mm) and the left parietal-occipital cortex (AP=−4.5 mm L=3 mm) according to the atlas by Paxinos (The Rat Brain in Stereotaxic Coordinates, Academic Press, 1995). Three stainless steel wire electrodes, isolated except for the last few millimeters, were implanted into the neck muscles (two bilaterally and one in the middle) for the monitoring of the EMG. The EEG epidural electrodes and the EMG wires were fitted to a six-pin female connector. For fixation to the skull, the wires and connector were covered with dental acrylic (Coltene/Whaledent Inc. USA). The animals were allowed to recover from the surgery for at least 3-4 days.
Twenty-four hours (24 h) following the surgery, the rats were placed in the recording room from noon to 9:00 PM, for 3-4 days. The rats were connected to the 6-flat cable (3M), in a freely-moving manner, from 6:00 PM to 9:00 PM for habituation. No recordings were performed at this time, however, the tolerance to the cable and the sleep behavior were observed.
Following 3-4 days of habituation, the rats received the injection of a vehicle (DMSO/saline 7:3, 0.2 ml s.c.) at 6:00 PM and the recording was carried out until 9:00 PM. On the following day the rats received diazepam (2 mg/kg, s.c.) at 6:00 PM and the recording was performed until 9:00 PM. Four days following the injection of diazepam, the rat received 5b (40 mg/kg s.c.) and the recording also performed from 6 to 9 PM.
For each experiment, a rat was placed individually in the cage and monitoring of the signal was carried out via the attachment of a non-restraining 6-wire flat cable and a female connector, which was connected to an impedance transformer with a gain of 10, located above the cage. The EEG signal was amplified (resulting in a total gain of 10,000) and locally filtered. The EMG signal was amplified as the EEG, (EEG: low filter 1.0 Hz; high 1 KHz, EMG: low filter 30.0 Hz; high 3 KHz). The power spectra analysis was performed for identification of the sleep stages. The behavior of the animals was observed during the experiment (eye movements, ambulation, rearing etc.).
The three classical vigilance-sleep states described in the rat were discriminated on the basis of the cortical EEG and neck EMG, following the classification by Ruigt et al. (Electroencephalography and clinical Neurophysiology, 1989, 73: 52-63). Wakefulness was identified by a low-amplitude and desynchronized EEG with sustained EMG activity. Slow wave sleep (SWS, includes Quiet sleep, deep sleep and Pre-REM) was clearly distinguished by high-voltage delta waves (2-4 Hz) and spindles associated with a […] EMG activity. Pre-REM sleep was characterized by a clear theta rhythm in the EEG, frequently alternating with short lasting, high voltage spindles. REM sleep was characterized by a low-amplitude EEG with a pronounced theta rhythm (5.5-8.5 Hz), a complete loss of muscle tone, and a low voltage EMG. […]

In the case of `COc1cccc(N(CCNC(C)=O)c2ccccc2)c1` [5b, N-{2-[(3-Methoxyphenyl)-phenylamino]ethyl}acetamide], the “increase of spontaneous activity of 5-HT neurons” value (from here on “increase”) in assay [1] (acute single injection 40 mg/kg subcutaneous) turned out to be 40%. Besides, in assay [1] (acute single injection 40 mg/kg subcutaneous (control 0.66 Hz)), the “5-HT neuron firing rate” value was found to be 0.93 Hz. The “increase” value in assay [1] (acute single injection 80 mg/kg subcutaneous) turned out to be 106%. Further, the “5-HT neuron firing rate” value in assay [1] (acute single injection 80 mg/kg subcutaneous (control 0.66 Hz)) amounted to 1.36 Hz. Besides, in assay [1] (sub-chronic 40 mg/kg i.p. once a day for 4 days, recorded 24 h after last injection), the “increase” value turned out to be 133%. The “5-HT neuron mean firing rate” value in assay [1] (sub-chronic 40 mg/kg once a day for 4 days, recorded 24 h after last injection (control 1.2 Hz)) was 2.8 Hz and 2.80 Hz. Besides, in assay [2], the “REM Sleep Duration” value was 8.66 min and 7.04 min and 13.89 min and 4.96 min and 8.51 min and 11.6 min and 5.61 min and 7.2 min and 11.18 min and 11.76 min and 9.48 min; the “REM Sleep Latency” value was 76.1 min and 62.31 min and 60.92 min and 109.5 min and 86.49 min and 71.16 min and 80.13 min and 101.41 min and 80.26 min and 54.26 min and 43.83 min; the “REM Sleep Mean of a Single Episode” value is 1.237 min and 1.76 min and 1.54 min and 1.65 min and 1.063 min and 1.933 min and 1.402 min and 2.4 min and 2.23 min and 1.68 min and 1.896 min; the “REM Sleep Number (episodes)” value was 7 episodes (2×) and 4 episodes (2×) and 9 episodes and 3 episodes (2×) and 8 episodes and 6 episodes and 5 episodes (2×). In assay [2], the “Slow Wave Sleep Duration” value is 110.29 min and 73.51 min and 87.14 min and 92.65 min and 89.42 min and 80.00 min and 88.47 min and 79.1 min and 85.8 min and 80.84 min and 104.2 min; the “Slow Wave Sleep Latency” value is 15.73 min and 2.73 min and 1.05 min and 11.9 min and 10.85 min and 23.2 min and 25.9 min and 17.62 min and 5.05 min and 25.12 min and 17.24 min; the “Slow Wave Sleep Mean of a Single Episode” value was 5.01 min and 2.53 min and 3 min and 3.3 min and 3.43 min and 4.21 min and 2.6 min and 2.26 min and 6.12 min and 7.34 min and 7.44 min; the “Slow Wave Sleep Number (episodes)” value is 22 episodes and 29 episodes (2×) and 28 episodes and 26 episodes and 19 episodes and 34 episodes and 35 episodes and 14 episodes (2×) and 11 episodes. Also, in assay [2], the “Wakefulness Duration” value is 82.38 min and 82.05 min and 88.37 min and 85.99 min and 93.61 min and 83.69 min and 87.41 min and 90.48 min and 61.05 min and 92.11 min and 78.94 min; the “Wakefulness Mean of a Single Episode” value is 3.39 min and 3.54 min and 3.28 min and 2.94 min and 3.56 min and 4.9 min and 2.38 min and 2.75 min and 6.43 min and 14.56 min and 7.54 min; the “Wakefulness Number (episodes)” value is 18 episodes (2×) and 26 episodes and 24 episodes and 28 episodes and 23 episodes and 36 episodes and 34 episodes and 13 episodes and 6 episodes and 12 episodes.
